31 substances from article PMC10222454, “Characterization of the Molecular Diversity and Degranulation Activity of Mastoparan Family Peptides from Wasp Venoms” (Toxins, 2023) can be followed below.

One test concerns RBL-2H3 cells. The class given is cell-based, rat. Particulars: for Degranulation at 80 μg/mL, RBL-2H3: 80 μg/mL peptide, 15 min at 37 °C, % of total β-hexosaminidase (0.1% Triton X-100 lysis). The protocol: (§1) RBL-2H3 cells (rat mucosal-type mast cell line) and P815 cells (mouse mast cell tumor cell line) were obtained from the BeNa Culture Collection (Xinyang, China). RBL-2H3 cells were cultured in DMEM (Gibco, Wuhan, China) supplemented with 15% FBS (Gibco), and P815 cells were maintained in RPMI 1640 basic medium supplemented with 10% FBS and antibiotics (100 mg/L streptomycin and 1 × 10^5 U/L penicillin) in a humidified atmosphere (5% CO2, 37 °C).
(§2) Degranulation was analyzed by measuring the release of the granule marker N-acetyl-D-glucosaminidase (β-hexosaminidase), which colocalizes with histamine, as described in [24]. For this, 2 × 10^5 P815 cells/mL or 1.5 × 10^5 RBL-2H3 cells/mL were seeded in 96-well cell culture plates. Twelve hours later, the cells were incubated with various concentrations of mastoparans dissolved in 100 μL HEPES buffer (137 mM NaCl, 2.7 mM KCl, 1 mM MgCl2, 1.8 mM CaCl2, 20 mM HEPES, 1 mg/mL BSA, and 1 mg/mL glucose, pH 7.4) for 15 min at 37 °C and 5% CO2. Then, the reactions were quenched by the addition of 0.15 mL of ice-cold HEPES buffer. After centrifugation, the supernatants were sampled for the β-hexosaminidase assay. Briefly, 50 μL samples of the cell culture supernatants and 50 μL of the substrate, 5 mM p-nitrophenyl-N-acetyl-b-D-glucosaminide (Sigma) in 0.2 M citrate, pH 4.5, were incubated in 96-well plates at 37 °C and 5% CO2 for 16–18 h to yield the chromophore p-nitrophenol, and the reactions were stopped by the addition of 100 μL of 0.2 M glycine solution, pH 10.7. The absorbance of the colored product was assessed at 405 nm using a microtiter plate reader. The values for β-hexosaminidase released in the medium are expressed as the percentage of total β-hexosaminidase, which was measured in the cells after lysis in 0.1% Triton X-100. The experiment was repeated three times, and the results represent the mean and standard deviation (SD) of quadruplicate tests. The percent degranulation was calculated according to the following equation:Degranulation Rate (%) = 100% × (Amastoparans − AHEPES)/(ATriton X-100 − AHEPES).
Statistical analysis was performed with GraphPad Prism software. The curve of mast cell degranulation induced by wasp mastoparans was generated in SigmaPlot 12.5 software, and the EC50 was calculated according to the following equation (Four-Parameter Logistic Curve): y = min + (max − min)/(1 + (x/EC50) […] Hillslope).

Another test deals with P815 cells. In words: Mast cell degranulation activity (β-hexosaminidase release) in P815 cells. The following applies: P815 cells, 80 μg/mL peptide, 15 min at 37 °C, % of total β-hexosaminidase (0.1% Triton X-100 lysis). The class given is cell-based, mouse. The protocol:
as §1, §2

Where two headings read alike, the source gives them in different places. Ends that are not written are not given here.

Usually EC50 stands for the concentration giving half of the maximal effect. For INWKAIIEAAKQAL-NH2 [Protopolybia-MPII], the concentration giving a half-maximal response (EC50) in the test with RBL-2H3 cells (pH 7.4) was determined as 77.9 ± 9.08 µM.
For the substance “INWLKLGKAVSAIL-NH2 [Protopolybia-MP III-11]”, the EC50 with RBL-2H3 cells was greater than 325 µM. The “degranulation activity of mutant compared with Protopolybia-MPIII, in words” value in the test with RBL-2H3 cells (mutants of Protopolybia-MPIII, Table 3) is reported as “significantly decreased”.
Consider INWKKIKSIIKAAMN-NH2 [MP-V1], for which the EC50 in the test on RBL-2H3 cells (pH 7.4) was 130 ± 46.6 µM.
In the test on RBL-2H3 cells, “INWLKLGKAVIDIL-NH2 [Protopolybia-MP III-4]” came in with an EC50 of 28.1 ± 3.71 µM.
Regarding FDVMGIIKKIASAL-NH2 [EMP-EF], the EC50 in the test on RBL-2H3 cells (pH 7.4) worked out at 25.1 ± 1.59 µM.
Take INWKKMAATALKMI-NH2 [Parapolybia-MP]: in the test with RBL-2H3 cells (pH 7.4), it took 89.4 ± 19.9 µM to reach a half-maximal effect (EC50).
“INWLKLGKAVSDIL-NH2 [Protopolybia-MP III-9]” had an EC50 with RBL-2H3 cells of 49.6 ± 1.73 µM.
Consider INWLKLGKKMMSAL-NH2 [MP], for which the EC50 with RBL-2H3 cells (pH 7.4) was 66.8 ± 30.7 µM.
Regarding “INWKGIAAMKKLL-NH2 [Mastoparan-like peptide 12b]”, the “Degranulation at 80 μg/mL, RBL-2H3” value in the test with RBL-2H3 cells (RBL-2H3 cells) is given as 11%. Further, in the test with RBL-2H3 cells (pH 7.4), the EC50 was greater than 200 µM and the “EC50 (μg/mL), RBL-2H3” value was greater than 300 µg/mL. In the test with P815 cells, the “Degranulation at 80 μg/mL, P815” value is reported as less than 20%.
In the case of IKWKAILDAVKKVL-NH2 [Mastoparan-A], in the test with RBL-2H3 cells (pH 7.4), the EC50 amounted to 28.4 ± 1.55 µM.
On the same count and under the same terms, with INLKALAALVKKVL-NH2 [Mastoparan-II] the figure was 58.7 ± 24.8 µM.
“INWLKLGKAVIAAL-NH2 [Protopolybia-MP III-3]” had an EC50 with RBL-2H3 cells of 15.3 ± 3.53 µM.
The substance INLKALLAVAKKIL-NH2 [Mastoparan-C] showed an EC50 with RBL-2H3 cells (pH 7.4) of 32.6 ± 8.56 µM.
VDWKKIGQHILSVL-NH2 [Mastoparan-J]: the EC50 in the test on RBL-2H3 cells (pH 7.4) was 37.3 ± 5.13 µM.
Still for that read-out and setting: with FDLLGLVKKVASAL-NH2 [EpVP2a] the figure was 31.6 ± 4.31 µM; with INWAKLGKLALQAL-NH2 [Ropalidia-MP], 33 ± 5.79 µM.
Consider “INWLKLGKKVIAIL-NH2 [Protopolybia-MP III-12]”, for which the response in the test on RBL-2H3 cells was half-maximal at 47.7 ± 14.1 µM (EC50).
Still for that read-out and setting: the result for “INWLKLGKKVIDAL-NH2 [Protopolybia-MP III-1]” reads 98.4 ± 8.43 µM.
Take INLKAIAALVKKVL-NH2 [HR1]: the EC50 with RBL-2H3 cells (pH 7.4) was determined as 48.8 ± 3.57 µM.
The same measure, in the same setting: with INWLKLGKMVIDAL-NH2 [Polybia-MPII] the figure was 6.79 ± 0.4 µM.
Take INMKASAAVAKKLL-NH2 [Mastoparan-VB1]: in the test on RBL-2H3 cells (RBL-2H3 cells), the “degranulation of RBL-2H3 / mast cells, in words” value is “neither of them could induce the degranulation” and the “Degranulation at 80 μg/mL, RBL-2H3” value is reported as −1%. In addition, in the test with RBL-2H3 cells (pH 7.4), the EC50 is greater than 200 µM and the “EC50 (μg/mL), RBL-2H3” value is greater than 300 µg/mL. In the test on P815 cells, the “Degranulation at 80 μg/mL, P815” value is on record as less than 20%.
Take INWKKIKSLIKAAMS-NH2 [MP-V2]: the EC50 in the test with RBL-2H3 cells (pH 7.4) was 88.9 ± 61.3 µM.
As to “INWLKLGKKVIDIL-NH2 [Protopolybia-MP III-7]”, the midpoint of the response with RBL-2H3 cells, the EC50, lay at 25.2 ± 1.56 µM.
For INWLKLGKKILGAL-NH2 [PDD-B], it took 21.7 ± 3.78 µM to reach a half-maximal effect in the test on RBL-2H3 cells (pH 7.4) (EC50).
As to INWLKLGKAIIDAL-NH2 [Agelaia-MPI], the EC50 in the test with RBL-2H3 cells (pH 7.4) stood at 5.25 ± 0.87 µM. This EC50 is about 4.1-fold lower than that of the substance before.
Same read-out and setting: the result for INLLKIAKGIIKSL-NH2 [EMP-AF] reads 76.9 ± 19.6 µM; that for INLKVFAALVKKLL-NH2 [Mastoparan-T2], 24.2 ± 7.89 µM; that for INLKVFAALVKKFL-NH2 [Mastoparan-T1], 32.1 ± 10 µM.
The substance “INWLKLGKKVSDIL-NH2 [Protopolybia-MP III-13]” had an EC50 with RBL-2H3 cells of 145 ± 24.4 µM.
The substance INLKAIAALAKKLF-NH2 [Mastoparan-AF] had an EC50 in the test with RBL-2H3 cells (pH 7.4) of 18.1 ± 3.94 µM.
Consider INWKKIASIGKEVLKAL-NH2 [PMM2], for which the EC50 in the test with RBL-2H3 cells (pH 7.4) amounted to 36.6 ± 4.61 µM.
